{"source": "paper PMC7527723", "about": "“Sex Steroids Induce Membrane Stress Responses and Virulence Properties in Pseudomonas aeruginosa” (mBio, 2020)", "key": {"Vfr": {"target": "T1, Vfr (Pseudomonas aeruginosa, UniProt P55222)", "T1 construct": "purified protein", "T1 sequence (P55222 whole entry)": "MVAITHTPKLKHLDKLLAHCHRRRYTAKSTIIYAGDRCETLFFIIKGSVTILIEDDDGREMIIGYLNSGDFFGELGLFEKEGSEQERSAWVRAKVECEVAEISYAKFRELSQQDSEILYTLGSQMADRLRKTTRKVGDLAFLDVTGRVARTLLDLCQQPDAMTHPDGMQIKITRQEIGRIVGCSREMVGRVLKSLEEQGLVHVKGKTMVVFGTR", "assay": "biochemical", "assay_type": "binding"}, "[1]": {"target": "T2, Pseudomonas aeruginosa MucB protein (Pseudomonas aeruginosa, UniProt P38108 22-316)", "T2 sequence": "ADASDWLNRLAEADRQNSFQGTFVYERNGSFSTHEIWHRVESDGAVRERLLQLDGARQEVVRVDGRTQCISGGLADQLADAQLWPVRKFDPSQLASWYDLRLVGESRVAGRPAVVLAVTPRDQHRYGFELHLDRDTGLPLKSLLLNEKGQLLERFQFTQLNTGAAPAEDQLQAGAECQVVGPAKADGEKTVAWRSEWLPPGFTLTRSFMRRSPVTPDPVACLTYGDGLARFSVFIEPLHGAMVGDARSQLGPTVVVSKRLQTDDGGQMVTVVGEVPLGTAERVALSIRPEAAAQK", "assay": "SPR; purified MucB subjected to MucA binding (control); which partner was immobilised, buffer and temperature are not told in the text shown", "conditions": "both partners purified"}}}
{"molecule": "C[C@]12CC[C@@H]3c4ccc(O)cc4CC[C@H]3[C@@H]1C[C@@H](O)[C@@H]2O", "note": "[E3, estriol]", "values": [{"measurement": "Kd", "setting": "Vfr", "result": "0.75 to 0.782", "unit": "mM"}]}
{"molecule": "C[C@]12CC[C@H]3[C@@H](CCC4=CC(=O)CC[C@@]43C)[C@@H]1CC[C@@H]2O", "note": "[T, testosterone]", "values": [{"measurement": "Kd", "setting": "Vfr", "result": "1.7 to 1.8", "unit": "mM"}]}
{"molecule": "MucA (natural protein, also called anti-sigma factor) YNQNDALPQMAQQGTTPQIALPQVKGPAVLAGYSEEQGAPQVITNSSSSDTRWHEQRLPIYLRQHVQQSAVSGTESALPYARAASLENR", "values": [{"measurement": "Kd", "setting": "[1]", "result": 2930, "unit": "nM"}]}
